Consider four substances from publication PMC8951016, “Computational Design and Biological Evaluation of Analogs of Lupin Peptide P5 Endowed with Dual PCSK9/HMG-CoAR Inhibiting Activity” (Pharmaceutics, 2022).

In one data set the test system is PCSK9. The arrangement: method as in 3 sources, ref 49 = [49]; PMID 35011066; doi:10.3390/nu14010193; 49. Macchi C. Greco M.F. Ferri N. Magni P. Arnoldi A. Corsini A. Sirtori C.R. Ruscica M. Lammi C. Impact of Soy β-Conglycinin Peptides on PCSK9 Protein Expression in HepG2 Cells Nutrients 2021 14 193 ||| ref 22 = [22]; doi:10.1016/j.jff.2017.02.009; 22. Zanoni C. Aiello G. Arnoldi A. Lammi C. Investigations on the hypocholesterolaemic activity of […] and LTFPGSAED, two peptides from lupin β-conglutin: Focus on LDLR and PCSK9 pathways J. Fu ||| ref 24 = [24]; PMID 33808034; doi:10.3390/nu13030863; 24. Lammi C. Aiello G. Bollati C. Li J. Bartolomei M. Ranaldi G. Ferruzza S. Fassi E.M.A. Grazioso G. Sambuy Y. Trans-Epithelial Transport, Metabolism, and Biological Activity Assessment of the Multi-. Conditions: 250 µM, via modulation of HNF1-α; cited from earlier work.

Data set [1] addresses T1, HMG-CoAR (catalytic domain) (Homo sapiens, UniProt P04035).
T1 construct: finally the HMG-CoAR (cata- lytic domain) (2 µL); purchased Sigma-Aldrich
T1 sequence (P04035 426-888 limits assumed): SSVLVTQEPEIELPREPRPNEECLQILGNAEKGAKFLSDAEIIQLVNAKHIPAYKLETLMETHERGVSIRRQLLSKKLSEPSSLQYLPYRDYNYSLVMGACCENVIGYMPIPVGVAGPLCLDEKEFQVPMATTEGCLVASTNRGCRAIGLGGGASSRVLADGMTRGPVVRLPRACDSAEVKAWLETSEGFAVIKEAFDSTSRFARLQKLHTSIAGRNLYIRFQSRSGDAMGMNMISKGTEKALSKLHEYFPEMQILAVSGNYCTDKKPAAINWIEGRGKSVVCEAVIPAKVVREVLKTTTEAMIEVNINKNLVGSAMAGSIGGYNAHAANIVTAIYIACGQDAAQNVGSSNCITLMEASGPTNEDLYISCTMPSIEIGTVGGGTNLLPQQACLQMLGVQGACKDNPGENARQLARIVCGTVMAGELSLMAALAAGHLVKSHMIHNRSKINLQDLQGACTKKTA
Conditions: cited from earlier work.

The test system of the next data set is mature PCSK9 (secreted). The arrangement: method as in PMID 35011066. The conditions noted are these: 250 µM, via modulation of HNF1-α; cited from earlier work.
The next data set deals with LDLR. The arrangement: method as in 3 sources, ref 48 = [48]; doi:10.1111/jfbc.12757; 48. Lammi C. Zanoni C. Arnoldi A. Aiello G. […] (P3), a peptide from lupin protein, absorbed by Caco-2 cells, modulates cholesterol metabolism in HepG2 cells via SREBP-1 activation J. Food B ||| ref 22 = [22]; doi:10.1016/j.jff.2017.02.009; 22. Zanoni C. Aiello G. Arnoldi A. Lammi C. Investigations on the hypocholesterolaemic activity of […] and LTFPGSAED, two peptides from lupin β-conglutin: Focus on LDLR and PCSK9 pathways J. Fu ||| ref 24 = [24]; PMID 33808034; doi:10.3390/nu13030863; 24. Lammi C. Aiello G. Bollati C. Li J. Bartolomei M. Ranaldi G. Ferruzza S. Fassi E.M.A. Grazioso G. Sambuy Y. Trans-Epithelial Transport, Metabolism, and Biological Activity Assessment of the Multi-. Conditions: via compensatory upregulation of SREBP-1; cited from earlier work.

Another data set deals with SREBP-2. Conditions: cited from earlier work. How it is done: Further experiments were performed to verify the ability of these P5 analogs to modulate the LDLR pathway in HepG2 cells.
Data set [2] deals with LDLR on HepG2 cell surface. The conditions noted are these: cellular level; cited from earlier work.
For data set [3], the system named is LDL uptake, HepG2 cells. The conditions noted are these: cited from earlier work.
Data set [4] relates to LDL uptake, HepG2 cells. The data set can be described thus: Fluorescent LDL uptake in HepG2 cells in the presence of PCSK9. It counts as cell-based, human. Conditions: PCSK9 4 μg/mL, 2 h; vs untreated control cells; p < 0.05. How it is done:
HepG2 cells (3 × 10^4/well) were seeded in 96-well plates and kept in complete growth medium for 2 days before treatment. The third day, cells were washed with PBS and then starved overnight (O/N) in DMEM without FBS and antibiotics. After starvation, they were treated with 4.0 μg/mL PCSK9 and 4.0 μg/mL PCSK9 + P5 and P5 analogs peptides (50 µM), and vehicle (H2O) for 2 h with at 37 °C under 5% CO2 atmosphere. Fluorescent LDL-uptake was finally assessed following optimized protocol. See Supplementary Materials for further details.
PBS for 1.5 h at RT. LDLR primary antibody solution (1:3000 in 5% BSA in PBS, 25 µL/well) was incubated O/N at +4 °C. […] The reaction was stopped with 2 M H2SO4 and then the absorbance at 450 nm was measured using the microplate reader Synergy H1 (Winoo-ski, VT, USA). After the read, cells were stained by adding 1 X Janus Green stain, incubat-ing for 5 min at RT. […]
Afterward 100 µL 0.5 M HCl for well were added and incubated for 10 min. After 10 sec-onds shaking, the OD at 595 nm was measured using the microplate reader Synergy H1 […]
Fluorescent LDL Uptake. […] The degree of LDL uptake was measured using the Synergy H1 fluo-rescent plate reader (Winooski, VT, USA) (excitation and emission wavelengths 540 and 570 nm, respectively). Fluorescent LDL-uptake was finally assessed following optimized […]

For data set [5], the system named is LDLR on HepG2 cell surface. Description: In-cell western (ICW), LDLR on HepG2 surface in the presence of PCSK9. It is filed as cell-based, human. Conditions: PCSK9 4 μg/mL, 2 h; vs untreated control cells; p < 0.001. How it is done: For the experiments, a total of 3 × 10^4 HepG2 cells/well were seeded in 96-well plates and treated with 4.0 μg/mL PCSK9-WT and 4.0 μg/mL PCSK9 + peptides P5 and/or P5 analogs (50 µM) and vehicle (H2O) for 2 h at 37 °C under 5% CO2 atmosphere. Thus, cells underwent to ICW assay following conditions already optimized. See Supplementary Materials for detailed information. […]
cLex Co., Nagano, Japan). The peptides (P5, P5-Best, P-H6A, and P5-S7A) were synthe-sized by the company GeneScript (Piscataway, NJ, USA) at >95% purity. The antibody against HMG-CoAR was bought from Abcam (Cambridge, UK). […]
HMG-CoAR Aactivity Assay. […] Subsequently, the samples were mixed and the absorbance at 340 nm read by the microplate reader Synergy H1 (Winooski, VT, USA) at time 0 and 10 min. The HMG-CoAR-dependent oxidation of NADPH and the inhibition properties of peptides were measured by absorbance reduction, which is directly proportional to enzyme activ- […]
In Vitro PCSK9-LDLR Binding Assay. […] The reaction was stopped with 2.0 M sulfuric acid and the absorbance at 450nm was measured using the Synergy H1 fluorescent plate reader […]

Regarding “YVVNPDNNEN [peptide from soybean β-Conglycinin]”, the “PCSK9 protein level (YVVNPDNNEN, words)” value with PCSK9 is listed as “reduces the PCSK9 protein level”. In [1], the “HMG-CoAR inhibition (YVVNPDNNEN, words)” value is listed as “able to inhibit the HMG-CoAR activity”. Besides, in the data set with mature PCSK9 (secreted), the “PCSK9 secretion (YVVNPDNNEN, words)” value is “reduces the PCSK9 protein level and its secretion”.
Regarding “YDFYPSSTKDQQS [Peptide P3, a peptide from lupin protein]”, the “LDLR protein levels (P3, words)” value in the data set with LDLR was “increase in the LDLR protein levels”. In the data set with SREBP-2, the “SREBP-2 activation (P3, words)” value is listed as “without SREBP-2 activation”. The “HMG-CoAR activity (P3, words)” value in [1] is “inhibits HMG-CoAR activity”.
In the case of TVFTSWEEYLDWV [Pep2-8], the “restoration of LDLR protein levels vs P5 analogs” value in data set [2] was “less efficient than P5 analogs”. The “restoration of hepatocyte LDL absorption vs P5 analogs” value in the data set with LDL uptake, HepG2 cells [3] is reported as “less efficient than P5 analogs”.
In the case of “PCSK9: PCSK9 added at 4 µg/mL to HepG2 cells”, the “reduction in uptake of fluorescent LDL by PCSK9 alone” value in the data set on LDL uptake, HepG2 cells [4] was found to be 43.6 ± 9.6%. For the same substance, the “decrease of LDLR level by PCSK9 alone” value in [5] is 25.4 ± 1.6%.
